Calls of active or inactive are those of the source.
What was measured:
Ion channel NompC = Ion channel NompC (Danio rerio, UniProt Q7T1G6); assay: Fluorescence counterscreen assay for TRPML3 agonists: dose response cell-based high-throughput screening assay to identify agonists of the transient receptor potential channel N1 (TRPN1). [Related pubchem assays: 1526, 1424, 1448 ]; format: functional
Mucolipin-3 = Mucolipin-3 (Homo sapiens, UniProt Q8TDD5); assay: Dose response cell-based high-throughput screening assay for agonists of the transient receptor potential channel ML3 (TRPML3). [Related pubchem assays: 1526, 1424, 1448 ]; format: functional
Mucolipin-3, sequence (Q8TDD5 whole entry): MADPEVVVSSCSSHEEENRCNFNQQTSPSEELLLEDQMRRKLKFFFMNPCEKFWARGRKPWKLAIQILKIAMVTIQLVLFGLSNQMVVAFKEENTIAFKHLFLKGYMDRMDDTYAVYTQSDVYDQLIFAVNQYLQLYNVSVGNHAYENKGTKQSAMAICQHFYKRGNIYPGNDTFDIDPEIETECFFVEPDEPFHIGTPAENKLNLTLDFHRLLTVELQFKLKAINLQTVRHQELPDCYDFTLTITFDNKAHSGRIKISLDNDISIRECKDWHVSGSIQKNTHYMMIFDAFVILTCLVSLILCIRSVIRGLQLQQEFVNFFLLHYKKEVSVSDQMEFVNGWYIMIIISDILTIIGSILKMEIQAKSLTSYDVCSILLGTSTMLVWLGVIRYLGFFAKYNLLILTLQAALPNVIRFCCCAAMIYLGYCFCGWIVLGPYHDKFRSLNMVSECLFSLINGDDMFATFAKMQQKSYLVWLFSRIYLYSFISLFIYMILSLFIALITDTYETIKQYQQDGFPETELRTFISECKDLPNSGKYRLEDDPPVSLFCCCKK

[1] = viability of PTEN-deleted HCT116 cells – cell-based, HCT116 PTEN knockout, dose response (AID 1047); format: functional;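 further: HCT116 colon tumor cells with PTEN knocked out; cells exposed to compound for 60 hours before readout; potency for loss of cell viability measured by luminescence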
[2] = target: 5-hydroxytryptamine receptor 1E (Homo sapiens, UniProt P28566); assay: Counterscreen assay for S1P3 antagonists: Dose response cell-based high throughput screening assay to identify antagonists of the 5-Hydroxytryptamine Receptor Subtype 1E (5HT1E). [Related pubchem assays: 1429, 485 ]; format: functional
[3] = viability of HCT116 lacking mutant beta-catenin – cell-based, human colon tumor, dose response (AID 1045); format: functional;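 further: HCT116 colon tumor cells with beta catenin knocked out; cells exposed to compound for 60 hours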
[4] = target: Sphingosine 1-phosphate receptor 3 (Homo sapiens, UniProt Q99500); assay: Dose response cell-based high throughput screening assay for antagonists of the Sphingosine 1-Phosphate Receptor 3 (S1P3). [Related pubchem assays: 1429, 485 ]; format: functional
Sphingosine 1-phosphate receptor 3, sequence (Q99500 whole entry): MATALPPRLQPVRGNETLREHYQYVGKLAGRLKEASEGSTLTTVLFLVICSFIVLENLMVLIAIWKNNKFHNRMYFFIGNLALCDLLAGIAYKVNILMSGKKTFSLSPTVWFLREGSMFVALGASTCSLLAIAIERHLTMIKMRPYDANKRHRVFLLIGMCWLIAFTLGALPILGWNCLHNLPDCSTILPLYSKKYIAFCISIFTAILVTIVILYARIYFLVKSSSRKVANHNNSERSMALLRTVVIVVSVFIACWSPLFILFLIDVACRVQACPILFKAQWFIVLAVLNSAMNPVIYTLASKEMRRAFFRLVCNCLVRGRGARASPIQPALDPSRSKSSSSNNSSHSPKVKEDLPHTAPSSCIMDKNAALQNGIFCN

Leucine aminopeptidase = target: T1, Leucine aminopeptidase (Plasmodium falciparum 3D7, UniProt Q8IL11); assay: P. falciparum M17LAP inhibitors, primary screen, biochemical, fluorogenic H-Leu-NHMec substrate, 1536-well (AID 1619); format: functional
T1 sequence (Q8IL11 whole entry): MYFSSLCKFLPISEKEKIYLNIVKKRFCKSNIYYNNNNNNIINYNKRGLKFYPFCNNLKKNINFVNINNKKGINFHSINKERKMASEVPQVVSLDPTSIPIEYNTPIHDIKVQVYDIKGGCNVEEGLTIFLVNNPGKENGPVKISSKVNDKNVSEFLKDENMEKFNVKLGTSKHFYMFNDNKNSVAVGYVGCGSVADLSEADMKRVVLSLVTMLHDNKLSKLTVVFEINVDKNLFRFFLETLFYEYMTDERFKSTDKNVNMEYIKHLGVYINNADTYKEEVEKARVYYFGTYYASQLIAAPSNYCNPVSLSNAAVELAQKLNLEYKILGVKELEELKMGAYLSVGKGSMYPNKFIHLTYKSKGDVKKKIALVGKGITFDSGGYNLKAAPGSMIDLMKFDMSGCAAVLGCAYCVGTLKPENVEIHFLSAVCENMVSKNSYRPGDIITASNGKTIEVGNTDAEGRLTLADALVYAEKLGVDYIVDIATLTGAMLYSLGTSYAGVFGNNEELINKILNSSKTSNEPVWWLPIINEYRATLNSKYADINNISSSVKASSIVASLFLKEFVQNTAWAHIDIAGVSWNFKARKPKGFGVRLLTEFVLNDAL

[5] = mitochondrial function rescue without frataxin homolog – Friedreich's ataxia, plus single-dose screen, dose response (AID 1465); format: functional;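 further: yeast depleted of Yfh1p frataxin homolog grown on glycerol needing respiration; WST-1 tetrazolium dye reduction as measure of cellular dehydrogenase metabolic activity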
[6] = target: T2, E3 ubiquitin-protein ligase XIAP (Homo sapiens, UniProt P98170); assay: small molecules displacing peptide from XIAP – biochemical, IAP family, fluorescence polarization (AID 1018); format: functional
T2 sequence (P98170 whole entry): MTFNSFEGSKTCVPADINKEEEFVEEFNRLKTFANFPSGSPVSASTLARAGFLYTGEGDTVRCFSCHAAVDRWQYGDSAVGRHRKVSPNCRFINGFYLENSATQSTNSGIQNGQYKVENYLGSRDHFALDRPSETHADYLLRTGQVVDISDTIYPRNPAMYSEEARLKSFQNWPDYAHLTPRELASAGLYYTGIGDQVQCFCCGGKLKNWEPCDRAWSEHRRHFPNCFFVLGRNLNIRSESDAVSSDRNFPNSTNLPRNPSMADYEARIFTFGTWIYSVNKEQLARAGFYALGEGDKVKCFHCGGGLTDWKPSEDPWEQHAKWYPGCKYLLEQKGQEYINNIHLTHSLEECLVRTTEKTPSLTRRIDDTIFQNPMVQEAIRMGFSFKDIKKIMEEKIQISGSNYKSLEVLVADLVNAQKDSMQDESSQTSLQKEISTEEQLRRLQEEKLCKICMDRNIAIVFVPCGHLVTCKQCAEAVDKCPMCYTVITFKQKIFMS

[7] = target: T2, E3 ubiquitin-protein ligase XIAP; assay: Counter Screen using XIAP-Bir3 for Chemical Antagonists of Bir1/2 domains of IAP-family anti-apoptotic proteins. [Related pubchem assays (depositor defined):AID1018, AID1449, AID1514, AID1638, AID1749, AID1750, AID488957, AID488963]
Streptokinase A = target: T3, Streptokinase A (Streptococcus pyogenes serotype M1, UniProt P10520); assay: Absorbance Microorganism-Based Dose Response Follow up to Identify Inhibitors of Streptokinase Expression. [Related pubchem assays: 1677 (Project Summary), 1915, 1914, 1902 (Retest at Dose), 1900 (Counter Screen), 1662 (Primary HTS)]; format: functional, Streptococcus pyogenes M1 GAS
T3 sequence (P10520 whole entry): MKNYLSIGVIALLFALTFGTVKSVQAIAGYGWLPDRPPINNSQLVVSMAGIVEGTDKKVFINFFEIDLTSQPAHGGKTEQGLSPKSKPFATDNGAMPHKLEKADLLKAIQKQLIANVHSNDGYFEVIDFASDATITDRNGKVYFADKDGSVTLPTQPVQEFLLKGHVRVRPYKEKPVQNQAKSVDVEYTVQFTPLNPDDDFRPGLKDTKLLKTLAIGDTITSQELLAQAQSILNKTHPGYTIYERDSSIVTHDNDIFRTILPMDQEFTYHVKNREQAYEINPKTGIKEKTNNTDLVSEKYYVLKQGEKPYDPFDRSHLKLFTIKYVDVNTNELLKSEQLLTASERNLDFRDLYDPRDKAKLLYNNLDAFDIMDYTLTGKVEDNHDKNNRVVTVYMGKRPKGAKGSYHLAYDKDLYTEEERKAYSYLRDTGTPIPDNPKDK

Streptococcus = assay: GAS bacterial viability reduction – luminescence, BacTiter-Glo, strain UMAA2166, counter-screen for streptokinase expression inhibitor project, dose response (AID 2477); format: functional, organism-based
INS1 = assay: INS-1E survival protection against cytokine death – cell-based, luminescence, retest, dose response (AID 449756); format: functional; conditions: Rattus norvegicus;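 further: cell death triggered by IL-1 beta plus TNF-alpha plus IFN-gamma mixture; protective hits raise ATP signal compared with cytokine alone wells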
[8] = viability of uninfected HEp-2 cells – cell-based, HTS, cytotoxicity control for RSV inhibitor project, dose response (AID 2410); format: functional; conditions: human respiratory syncytial virus
[9] = Trypanosoma cruzi growth suppression in host cells – NIH3T3 host cells, beta-gal luminescence, confirmation (AID 2044); format: functional, cell-based;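 further: intracellular parasites grown in NIH/3T3 mouse fibroblasts as host cells; luminescent beta-galactosidase reporter signal from transgenic T. cruzi replicating inside host cells; inhibitors lower the luminescence signal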
[10] = target: T4, Voltage-gated N-type calcium channel alpha-1B subunit/Amyloid beta A4 precursor protein-binding family A member 1 (Homo sapiens, UniProt Q00975+Q02410); format: protein assay
T4 sequence (Q00975 whole entry): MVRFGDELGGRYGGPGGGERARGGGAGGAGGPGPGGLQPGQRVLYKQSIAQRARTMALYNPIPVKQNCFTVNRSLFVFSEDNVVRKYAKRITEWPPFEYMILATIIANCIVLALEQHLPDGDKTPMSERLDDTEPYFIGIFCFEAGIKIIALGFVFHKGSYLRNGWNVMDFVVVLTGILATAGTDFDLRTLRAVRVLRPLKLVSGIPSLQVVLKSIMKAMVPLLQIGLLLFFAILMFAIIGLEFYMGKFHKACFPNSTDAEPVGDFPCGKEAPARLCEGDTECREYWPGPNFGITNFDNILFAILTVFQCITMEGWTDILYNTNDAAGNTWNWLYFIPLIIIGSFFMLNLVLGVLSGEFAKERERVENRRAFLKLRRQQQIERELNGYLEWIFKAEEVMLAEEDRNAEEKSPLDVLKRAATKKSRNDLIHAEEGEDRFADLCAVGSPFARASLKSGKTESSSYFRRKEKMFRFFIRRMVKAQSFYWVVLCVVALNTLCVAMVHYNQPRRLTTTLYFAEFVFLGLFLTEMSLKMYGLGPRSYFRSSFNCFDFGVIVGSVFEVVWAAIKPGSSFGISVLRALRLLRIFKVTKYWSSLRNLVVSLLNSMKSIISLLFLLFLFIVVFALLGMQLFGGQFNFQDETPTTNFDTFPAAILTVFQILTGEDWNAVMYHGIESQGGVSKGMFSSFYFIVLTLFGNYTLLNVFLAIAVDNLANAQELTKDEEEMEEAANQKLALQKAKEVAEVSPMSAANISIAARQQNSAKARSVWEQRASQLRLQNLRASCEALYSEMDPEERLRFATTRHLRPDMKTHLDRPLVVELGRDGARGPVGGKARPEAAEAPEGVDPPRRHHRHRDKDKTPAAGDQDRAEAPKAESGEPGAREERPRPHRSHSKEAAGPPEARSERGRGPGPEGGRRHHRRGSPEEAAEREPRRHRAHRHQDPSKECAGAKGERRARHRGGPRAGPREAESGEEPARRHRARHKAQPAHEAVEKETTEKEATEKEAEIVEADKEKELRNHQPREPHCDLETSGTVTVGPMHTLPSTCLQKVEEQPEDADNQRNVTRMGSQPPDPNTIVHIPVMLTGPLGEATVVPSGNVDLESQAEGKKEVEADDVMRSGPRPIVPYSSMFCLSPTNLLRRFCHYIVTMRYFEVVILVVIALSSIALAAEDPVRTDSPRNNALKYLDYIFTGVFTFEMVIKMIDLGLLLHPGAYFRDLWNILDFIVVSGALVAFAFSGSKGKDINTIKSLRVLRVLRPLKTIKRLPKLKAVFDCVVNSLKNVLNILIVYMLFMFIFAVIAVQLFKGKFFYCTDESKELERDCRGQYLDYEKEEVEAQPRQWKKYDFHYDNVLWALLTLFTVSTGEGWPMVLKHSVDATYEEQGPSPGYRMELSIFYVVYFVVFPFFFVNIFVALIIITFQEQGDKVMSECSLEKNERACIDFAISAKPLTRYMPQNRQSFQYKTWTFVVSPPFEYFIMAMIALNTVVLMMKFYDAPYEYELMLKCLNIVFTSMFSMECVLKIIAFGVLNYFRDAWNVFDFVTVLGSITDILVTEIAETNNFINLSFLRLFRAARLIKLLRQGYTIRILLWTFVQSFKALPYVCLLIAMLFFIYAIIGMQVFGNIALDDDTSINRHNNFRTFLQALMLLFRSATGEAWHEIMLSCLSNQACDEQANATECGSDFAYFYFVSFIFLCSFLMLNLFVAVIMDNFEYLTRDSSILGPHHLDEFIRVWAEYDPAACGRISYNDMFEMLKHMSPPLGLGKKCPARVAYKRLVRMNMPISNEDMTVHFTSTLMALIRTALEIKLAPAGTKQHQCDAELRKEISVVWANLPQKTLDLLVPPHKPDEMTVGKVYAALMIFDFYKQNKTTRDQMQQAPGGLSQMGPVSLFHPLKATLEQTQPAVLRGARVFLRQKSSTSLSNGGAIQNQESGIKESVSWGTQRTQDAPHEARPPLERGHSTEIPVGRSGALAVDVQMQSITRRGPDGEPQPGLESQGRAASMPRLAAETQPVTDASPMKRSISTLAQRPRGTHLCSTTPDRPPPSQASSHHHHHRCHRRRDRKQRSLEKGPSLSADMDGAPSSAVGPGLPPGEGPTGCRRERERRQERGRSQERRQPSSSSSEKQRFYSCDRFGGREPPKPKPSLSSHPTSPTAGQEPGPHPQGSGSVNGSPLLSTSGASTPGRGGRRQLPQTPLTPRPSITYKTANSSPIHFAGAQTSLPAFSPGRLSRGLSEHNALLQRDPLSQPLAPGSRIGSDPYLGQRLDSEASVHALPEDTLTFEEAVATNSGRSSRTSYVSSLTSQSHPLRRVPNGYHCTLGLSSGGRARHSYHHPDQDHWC
T4 sequence (Q02410 whole entry): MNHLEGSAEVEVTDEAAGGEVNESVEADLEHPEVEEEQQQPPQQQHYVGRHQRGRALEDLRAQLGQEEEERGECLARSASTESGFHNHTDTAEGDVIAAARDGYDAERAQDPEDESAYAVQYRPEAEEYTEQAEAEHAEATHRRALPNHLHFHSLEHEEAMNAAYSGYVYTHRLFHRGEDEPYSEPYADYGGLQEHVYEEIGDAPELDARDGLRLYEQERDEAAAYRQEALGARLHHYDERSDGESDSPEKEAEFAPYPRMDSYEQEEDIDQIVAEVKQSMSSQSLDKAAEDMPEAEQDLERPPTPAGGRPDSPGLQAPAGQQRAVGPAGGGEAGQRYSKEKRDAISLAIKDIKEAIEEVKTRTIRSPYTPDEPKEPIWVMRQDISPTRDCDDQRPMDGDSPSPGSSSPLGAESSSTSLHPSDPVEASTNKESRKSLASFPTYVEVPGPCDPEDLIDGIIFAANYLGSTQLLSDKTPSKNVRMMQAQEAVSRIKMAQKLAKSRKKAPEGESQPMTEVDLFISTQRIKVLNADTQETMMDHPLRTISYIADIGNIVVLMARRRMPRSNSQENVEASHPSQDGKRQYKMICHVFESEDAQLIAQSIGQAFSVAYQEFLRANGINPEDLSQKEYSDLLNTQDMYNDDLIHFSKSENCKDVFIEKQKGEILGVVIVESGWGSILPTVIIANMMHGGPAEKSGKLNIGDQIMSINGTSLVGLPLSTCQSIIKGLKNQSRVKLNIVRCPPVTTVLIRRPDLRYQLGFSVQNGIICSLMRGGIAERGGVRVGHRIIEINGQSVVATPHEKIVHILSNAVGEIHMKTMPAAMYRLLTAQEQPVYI

[11] = target: Heat shock protein HSP 90-alpha (Homo sapiens, UniProt P07900); format: functional, organism-based
HeLa = assay: Cytotoxicity counterscreen assay for transcriptional activators of heat shock protein 70 (Hsp70). [Related pubchem assays: 1203, 1252 ]; format: functional; conditions: Homo sapiens;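 further: cells exposed to compound for 16 hours before readout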
[12] = NIH3T3 cell viability loss – ATP luminescence, mouse fibroblasts, counter-screen, dose response (AID 2010); format: functional, cell-based;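 further: cells exposed to compound for about 90 hours before reading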
[13] = target: T4, Voltage-gated N-type calcium channel alpha-1B subunit/Amyloid beta A4 precursor protein-binding family A member 1; format: protein assay; remark: listed apart in the source
NADPH oxidase 1 = NADPH oxidase 1 (Homo sapiens, UniProt Q9Y5S8); format: functional, cell-based;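 further: Cell-based assay with luminescence read-out, IC50 derived from inhibitor dose-response curves; intracellular ROS from endogenous NOX1 in intact HT29 colon cancer cells; potency of inhibitors that lower the ROS luminescence signal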
[14] = target: Sphingosine 1-phosphate receptor 2 (Homo sapiens, UniProt O95136); assay: Dose Response Cell Based Assay for Agonists of the S1P2 Receptor of Purchased Analogues. [Related pubchem assays: 729, 843, 854, 736 ]; format: functional
Procathepsin L = Procathepsin L (Homo sapiens, UniProt P07711); assay: CTSL1 protease inhibition – biochemical, QFRET, 1536-well, counter-screen for M1/M17 aminopeptidase inhibitor project, dose response (AID 2214)
Procathepsin L, sequence (P07711 whole entry): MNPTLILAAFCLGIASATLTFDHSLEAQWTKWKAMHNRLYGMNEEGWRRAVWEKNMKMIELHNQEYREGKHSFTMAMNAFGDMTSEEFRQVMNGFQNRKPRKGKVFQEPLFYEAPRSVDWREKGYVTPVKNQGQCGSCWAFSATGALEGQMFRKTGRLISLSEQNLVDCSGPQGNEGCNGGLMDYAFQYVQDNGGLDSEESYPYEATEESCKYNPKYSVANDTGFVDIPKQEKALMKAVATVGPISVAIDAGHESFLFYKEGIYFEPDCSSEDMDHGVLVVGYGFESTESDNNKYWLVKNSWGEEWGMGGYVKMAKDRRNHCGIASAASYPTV

Aminopeptidase N = target: T5, Aminopeptidase N (Plasmodium falciparum FcB1/Columbia, UniProt O96935); assay: malaria alanyl aminopeptidase activity blockers – biochemical, fluorogenic H-Leu-NHMec substrate, 1536-well (AID 1445); set-up: species or system Plasmodium falciparum 3D7, 3D7
T5 sequence (O96935 whole entry): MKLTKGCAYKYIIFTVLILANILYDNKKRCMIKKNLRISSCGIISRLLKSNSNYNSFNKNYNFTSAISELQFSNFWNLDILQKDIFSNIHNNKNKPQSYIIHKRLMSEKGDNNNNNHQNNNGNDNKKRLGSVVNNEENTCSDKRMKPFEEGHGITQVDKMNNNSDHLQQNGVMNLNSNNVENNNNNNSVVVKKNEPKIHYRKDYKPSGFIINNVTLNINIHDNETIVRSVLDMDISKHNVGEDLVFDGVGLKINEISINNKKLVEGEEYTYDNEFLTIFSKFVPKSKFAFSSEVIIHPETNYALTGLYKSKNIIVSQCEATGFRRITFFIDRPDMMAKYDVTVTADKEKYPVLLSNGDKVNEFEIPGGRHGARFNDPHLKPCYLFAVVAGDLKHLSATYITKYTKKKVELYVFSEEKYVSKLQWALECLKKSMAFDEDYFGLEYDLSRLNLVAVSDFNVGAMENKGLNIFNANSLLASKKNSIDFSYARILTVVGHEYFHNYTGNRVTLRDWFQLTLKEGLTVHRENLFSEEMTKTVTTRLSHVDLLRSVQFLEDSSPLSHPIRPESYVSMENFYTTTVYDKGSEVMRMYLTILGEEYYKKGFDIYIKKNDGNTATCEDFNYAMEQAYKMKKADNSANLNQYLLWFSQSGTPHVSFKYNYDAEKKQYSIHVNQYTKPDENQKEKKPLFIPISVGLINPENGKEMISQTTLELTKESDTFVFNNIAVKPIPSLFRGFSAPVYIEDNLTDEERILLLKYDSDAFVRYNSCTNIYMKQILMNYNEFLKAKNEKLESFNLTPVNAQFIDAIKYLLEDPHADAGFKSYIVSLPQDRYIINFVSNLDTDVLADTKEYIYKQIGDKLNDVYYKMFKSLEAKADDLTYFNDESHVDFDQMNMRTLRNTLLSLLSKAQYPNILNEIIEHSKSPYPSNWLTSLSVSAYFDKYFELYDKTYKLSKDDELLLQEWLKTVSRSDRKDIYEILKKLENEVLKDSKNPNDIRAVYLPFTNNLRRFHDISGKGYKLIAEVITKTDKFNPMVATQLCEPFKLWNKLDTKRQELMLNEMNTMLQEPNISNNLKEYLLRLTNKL

Aspartyl aminopeptidase = target: T6, Aspartyl aminopeptidase (Plasmodium falciparum 3D7, UniProt Q8I2J3); assay: Counterscreen for inhibitors of M1 and M17 aminopeptidases: QFRET-based biochemical high throughput dose response assay for inhibitors of the Plasmodium falciparum M18 Aspartyl Aminopeptidase (PFM18AAP). [Related PubChem assays: 1619 (Screening assay (M17LAP inhibitors).), 1445 (Screening assay (M1AAP inhibitors).)]
T6 sequence (Q8I2J3 whole entry): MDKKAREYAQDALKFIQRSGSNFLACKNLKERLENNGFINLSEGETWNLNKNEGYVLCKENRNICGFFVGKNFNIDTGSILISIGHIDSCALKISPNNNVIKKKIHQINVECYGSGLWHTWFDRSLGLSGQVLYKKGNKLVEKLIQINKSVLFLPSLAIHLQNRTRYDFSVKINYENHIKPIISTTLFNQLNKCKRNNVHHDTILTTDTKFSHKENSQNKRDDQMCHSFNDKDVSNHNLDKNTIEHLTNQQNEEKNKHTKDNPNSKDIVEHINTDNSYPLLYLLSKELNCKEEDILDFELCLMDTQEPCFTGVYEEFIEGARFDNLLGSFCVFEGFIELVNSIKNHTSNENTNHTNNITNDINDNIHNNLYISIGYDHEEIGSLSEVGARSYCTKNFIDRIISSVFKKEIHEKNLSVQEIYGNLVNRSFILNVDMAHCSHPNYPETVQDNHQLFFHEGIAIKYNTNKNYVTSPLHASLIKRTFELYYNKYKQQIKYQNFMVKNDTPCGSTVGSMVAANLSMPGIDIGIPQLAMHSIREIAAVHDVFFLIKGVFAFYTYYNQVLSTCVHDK

[15] = target: T7, Mannose-6-phosphate isomerase (Homo sapiens, UniProt P34949); assay: MPI enzyme activity inhibition – biochemical, fluorescence intensity, coupled assay, primary screen (AID 1209)
T7 sequence (P34949 whole entry): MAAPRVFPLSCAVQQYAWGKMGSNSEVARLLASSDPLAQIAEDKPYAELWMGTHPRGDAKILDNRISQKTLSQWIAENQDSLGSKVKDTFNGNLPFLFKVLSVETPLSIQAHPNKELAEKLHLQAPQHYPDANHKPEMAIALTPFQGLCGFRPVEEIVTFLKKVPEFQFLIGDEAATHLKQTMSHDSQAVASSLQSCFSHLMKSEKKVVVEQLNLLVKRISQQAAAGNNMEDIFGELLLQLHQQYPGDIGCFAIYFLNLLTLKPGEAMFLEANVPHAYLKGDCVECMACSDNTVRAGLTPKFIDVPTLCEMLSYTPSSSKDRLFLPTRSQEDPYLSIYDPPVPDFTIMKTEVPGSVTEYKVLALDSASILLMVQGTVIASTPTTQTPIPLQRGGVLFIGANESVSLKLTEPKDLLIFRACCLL

[16] = target: T7, Mannose-6-phosphate isomerase; assay: MPI inhibition at elevated mannose 6-phosphate – biochemical, fluorescence intensity, high mannose 6-phosphate, primary screen (AID 1220)
HT-1080 = assay: HT1080 cell viability loss – fluorescence readout (AID 620); format: functional, cell-based; conditions: Homo sapiens
[17] = target: Luciferin 4-monooxygenase (Photinus pyralis, UniProt P08659); assay: Counter Screen for Luciferase-based Assay Positives. [Related pubchem assays: 620, 618, 411 ]

Cc1ccccc1S(=O)(=O)c1c(C)cc(C)n(C(C)C)c1=O
EC50 (Ion channel NompC): > 29.9 µM (not active)
EC50 (Mucolipin-3): 2.44 µM (active)

O=C(OC(C(=O)Nc1cccc(C(F)(F)F)c1)c1ccccc1)C1CCCCC1 (stereo unspecified)
EC50 [1]: 118 µM (active)
IC50 [2]: 11.2 µM (not active)
EC50 [3]: 518 µM (active)
IC50 [4]: 7.69 µM (active)

O=C(O)CN1C(=O)/C(=C\c2cn(CC(=O)N3CCOCC3)c3ccccc23)SC1=S
IC50 (Leucine aminopeptidase): 13.1 µM (active)
EC50 [5]: > 100 µM (active)

O=C(CCN1C(=O)C2C3C=CC(C3)C2C1=O)N1CCN(c2ccccc2F)CC1 (stereo unspecified)
IC50 [6]: > 100 µM (not active)
IC50 [7]: > 100 µM (inactive)

CC(C)Oc1nc(-c2ccc(Cl)cc2)nc2ccccc12
EC50 (Streptokinase A): 6.9 µM (active)
EC50 (Streptococcus): 51.2 µM (active)

N#C/C(=C/c1ccc(N2CCCCCC2)o1)c1ccc(Cl)cc1
AC50 (INS1): 8.91 µM (active)
CC50 [8]: 16.9 µM (active)
EC50 [9]: 1.81 µM (active)
IC50 [10]: > 50 µM (inactive)
AC50 [11]: 20.4 µM (active)
CC50 (HeLa): > 99 µM (not active)
EC50 [12]: > 60 µM (inconclusive)
IC50 [13]: 4.77 µM (active)

Clc1ccc2c(c1)Nc1ccccc1S2
IC50 (NADPH oxidase 1): 0.254 µM (active)

Cc1cc(C(=O)O)c(C)n1Cc1ccccc1
EC50 [14]: > 30 µM (not active)

O=C(NCc1cccc(F)c1)C1CCN(S(=O)(=O)Cc2ccccc2)CC1
IC50 (Procathepsin L): > 59.6 µM (not active)
IC50 (Aminopeptidase N): 1.71 µM (active)
IC50 (Aspartyl aminopeptidase): > 73.5 µM (not active)

CCN1C(=O)c2cccc3cccc1c23
IC50 [15]: 32 µM (active)
IC50 [10]: > 50 µM (inactive)
IC50 [16]: 33.9 µM (active)
IC50 [13]: 20.5 µM (active)

C=CCNc1ncnc2c1cnn2-c1ccc(OC)cc1
EC50 (HT-1080): > 50 µM (not active)
EC50 [17]: 0.33 µM (active)

— ChEMBL document CHEMBL1201862, “PubChem BioAssay data set” (2004)
